Key:
pCREB and MITF = assay: Western blot of classical melanin pathway regulators in melanocytes; format: cell-based, human; conditions: 1 μM overnight
Method: Adherent cells were treated with 1 μM doses of E2 and P4 overnight, washed once with DPBS, and lysed with 1% NP-40 buffer (150 mM NaCl, 50 mM Tris, pH 7.5, 1 mM EDTA, and 1% NP-40) containing 1× protease inhibitors (Roche) and 1× phosphatase inhibitors (Roche). Lysates were quantified (Bradford assay), normalized, reduced, denatured (95° C.) and resolved by SDS gel electrophoresis on 4-15% Tris/Glycine gels (Bio-Rad). Resolved protein was transferred to PVDF membranes (Millipore) using a Semi-Dry Transfer Cell (Bio-Rad), blocked in 5% dry milk in TBS-T and probed with primary antibodies recognizing MITF (Cell Signaling Technology, #12590, 1:1000), pCREB (Cell Signaling Technology, #9198, 1:1000), CREB (Cell Signaling Technology, #9104, 1:1000), and β-Actin (Cell Signaling Technology, #3700, 1:4000). After incubation with the appropriate secondary antibody, proteins were detected using either Luminata Crescendo Western HRP Substrate (Millipore) or ECL Western Blotting Analysis System (GE Healthcare).

cAMP = cAMP ELISA on primary human melanocytes; format: cell-based
Method: cAMP ELISA was performed on primary human melanocytes using the Cyclic AMP XP Assay Kit (Cell Signaling Technology, #4339) following manufacturer instructions.

3-D organotypic skin [1] = assay: Fontana-Masson melanin staining of 3-D organotypic skin; format: cell-based, human; conditions: vs vehicle
3-D organotypic skin [2] = assay: MITF immunohistochemistry of organotypic skin (melanocyte population density); format: cell-based, human; conditions: vs vehicle
Excerpt: Formalin fixed paraffin embedded (FFPE) human skin tissue sections from organotypic tissue was stained for MITF protein expression using a primary antibody to MITF (Leica Biosystems, NCL-L-MITF, 1:15).

PR = biological target: T1, PR (Homo sapiens, UniProt P06401); conditions: cited from earlier work
T1 sequence (P06401 1-933): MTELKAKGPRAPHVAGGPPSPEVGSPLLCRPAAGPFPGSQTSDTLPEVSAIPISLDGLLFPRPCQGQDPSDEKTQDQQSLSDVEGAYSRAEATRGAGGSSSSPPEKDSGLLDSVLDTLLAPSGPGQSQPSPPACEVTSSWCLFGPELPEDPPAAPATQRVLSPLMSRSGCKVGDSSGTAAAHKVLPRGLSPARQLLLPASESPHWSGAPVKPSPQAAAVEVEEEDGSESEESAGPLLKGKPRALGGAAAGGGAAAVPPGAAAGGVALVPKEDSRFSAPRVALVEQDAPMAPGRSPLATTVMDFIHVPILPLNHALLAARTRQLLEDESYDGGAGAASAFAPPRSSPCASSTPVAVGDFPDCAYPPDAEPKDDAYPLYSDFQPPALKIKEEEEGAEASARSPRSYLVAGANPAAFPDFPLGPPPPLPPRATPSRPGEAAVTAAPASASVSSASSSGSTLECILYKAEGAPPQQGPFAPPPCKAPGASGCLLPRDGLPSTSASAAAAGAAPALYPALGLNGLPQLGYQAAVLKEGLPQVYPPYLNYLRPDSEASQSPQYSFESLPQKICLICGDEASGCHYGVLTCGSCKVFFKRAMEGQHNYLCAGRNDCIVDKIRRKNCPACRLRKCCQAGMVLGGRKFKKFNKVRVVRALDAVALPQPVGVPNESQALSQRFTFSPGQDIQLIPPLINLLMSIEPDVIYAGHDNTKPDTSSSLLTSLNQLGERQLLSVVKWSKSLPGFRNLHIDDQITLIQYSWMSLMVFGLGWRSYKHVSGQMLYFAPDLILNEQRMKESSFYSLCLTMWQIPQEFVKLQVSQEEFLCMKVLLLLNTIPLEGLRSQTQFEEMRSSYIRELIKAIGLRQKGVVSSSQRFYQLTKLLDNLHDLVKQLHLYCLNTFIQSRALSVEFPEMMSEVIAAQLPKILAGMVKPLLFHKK

ER = conditions: cited from earlier work

Row | Structure (SMILES) | MITF protein (pCREB and MITF) | pCREB protein (pCREB and MITF) | cAMP (cAMP) | melanin production in skin tissue (3-D organotypic skin [1]) | total melanocyte number or density (3-D organotypic skin [2]) | binding to PR (PR) | inhibitory activity against ER (ER)
1 | CC(=O)[C@H]1CC[C@H]2[C@@H]3CCC4=CC(=O)CC[C@]4(C)[C@H]3CC[C@]12C [progesterone] | decreases | decreases | decreases | decreased melanin production by nearly half | without affecting overall melanocyte cell number |  | 
2 | C=C[C@]12CCC(=O)C=C1CC[C@H]1[C@@H]3CC[C@H](C(C)=O)[C@@]3(C)CC[C@@H]12 (relative stereo) [CH2P4, rel-(8S,9S,10S,13 S,14S,17S)-17-acetyl-13-methyl-10-vinyl-6,7,8,9,10,11,12,13,14,15,16,17-dodecahydro-1H-cyclopenta[a]phenanthren-3 (2H)-one] |  |  |  | decrease in melanin production |  | does not bind | 
3 | Brc1cc2c(cc1[C@H]1Nc3ccccc3[C@@H]3C=CC[C@H]13)OCO2 (relative stereo) [G-15, rel-(3aS,4S,9bR)-4-(6-bromobenzo[d][1,3]dioxol-5-yl)-3a,4,5,9b-tetrahydro-3H-cyclopenta[c]quinoline] |  |  |  |  |  |  | do not have inhibitory activity

— patent US11987576B2, “Compositions and methods for decreasing, or preventing or reversing gain of, skin pigmentation in a mammalian subject” (THE TRUSTEES OF THE UNIVERSITY OF PENNSYLVANIA, priority 2015, dated 2024)
